Measurements reported in patent US10519169B2, “3-(1H-pyrrolo[2,3-C]pyridin-2-yl)-1 H-pyrazolo[4,3-B]pyridines and therapeutic uses thereof” (Samumed, LLC, priority 2015, dated 2019).

How the values were obtained:
Type in all cases: cell-based
IL-6 = IL-6 inhibition in LPS-stimulated THP-1 cells (HTRF); details: Homo sapiens; for EC50: LPS 500 ng/mL, 22 hours, IL6 HTRF; for inhibition at 10 µM: given for EC50 >10 μM, LPS, IL6, at 10 M [sic], read-out: percent inhibition at 10 M
Method: Human monocyte cell line (THP-1 cells; Catalog # TIB-202, ATCC, Manassas, Va.) were cultured in Roswell Park Memorial Institute (RPMI) 1640 Medium (Catalog #21870-100, Buffalo, N.Y.) with 1% L-glutamine, 1% HEPES, 1% Sodium Pyruvate, 2% Sodium Bicarbonate supplemented with 100 units/mL penicillin, 50 μg/mL streptomycin, 2-mercaptoethanol (0.05 mM) [basal medium] and 10% fetal bovine serum (Catalog #16140089, Life Technologies, Carlsbad, Calif.) at 37° C. and 5% CO2.
THP-1 cells were cultured in basal media with 1% FBS for 24 hours before the start of the assay. Each compound was dissolved in DMSO as a 10 mM stock and used to prepare compound source plates. Serial dilution (1:3, 10-point dose-response curves starting from 10 μM) and compound transfer was performed using the ECHO 550 (Labcyte, Sunnyvale, Calif.) into 384-well white low volume assay plates (Greiner Bio-One) with appropriate DMSO backfill for a final DMSO concentration of 0.1%. THP-1 cells were plated at 5000 cells/well in the 384-well plates and incubated at 37° C. for 2 h. 500 ng/mL of LPS was added after 2 hours and cells were incubated for another 22 hours at 37° C. Plates were spun in a centrifuge for 1 minute at […] and a mixture of anti-IL6 XL665, and anti-IL6 Cryptate diluted in reconstitution buffer (Cisbio Inc.) was added to each well. Following incubation for 3 hrs at room temperature, Homogeneous Time-Resolved Fluorescence (HTRF) was measured using the Envision (Perkin Elmer) at 665 nm and […]. The ratio of fluorescence at 665 nm to 620 nm was used as a readout for IL6 quantification. All samples were processed in duplicate. Readings were normalized to DMSO treated cells and normalized activities were utilized for EC50 calculations using the dose-response log (inhibitor) vs. response-variable slope (four parameters) nonlinear regression feature available in GraphPad Prism 5.0 (or Dotmatics). For EC50 of >10 μM, the percent inhibition at […] is provided.

[1] = test system: Wnt activity (Sp5-Luc reporter, TCF/LEF binding sites) in SW480 colon carcinoma cells; assay: Wnt activity screening assay, Sp5-Luc reporter gene in SW480 cells; details: Homo sapiens; for inhibition at 10 µM: given for EC50 >10 μM, read-out: percent inhibition at 10 μM; for EC50: overnight incubation
Source text: The screening assay for Wnt activity is described as follows. Reporter cell lines can be generated by stably transducing cancer cell lines (e.g., colon cancer) or primary cells (e.g., IEC-6 intestinal cells) with a lentiviral construct that includes a Wnt-responsive promoter driving expression of the firefly luciferase gene.
SW480 colon carcinoma cells were transduced with a lentiviral vector expressing luciferase with a human Sp5 promoter consisting of a sequence of eight TCF/LEF binding sites. SW480 cells stably expressing the Sp5-Luc reporter gene and a hygromycin resistance gene were selected by treatment with 150 μg/mL of hygromycin for 7 days. These stably transduced SW480 cells were expanded in cell culture and used for all further screening activities. Each compound was dissolved in DMSO as a 10 mM stock and used to prepare compound source plates. Serial dilution (1:3, 10-point dose-response curves starting from 10 μM) and compound transfer was performed using the ECHO 550 (Labcyte, Sunnyvale, Calif.) into 384-well white solid bottom assay plates (Greiner Bio-One) with appropriate DMSO backfill for a final DMSO concentration of 0.1%. For Sp5-Luc reporter gene assays, the cells were plated at 4,000 cells/well in 384-well plates with medium containing 1% fetal bovine serum and incubated overnight at 37° C. and 5% CO2. Following incubation, 20 μl of BrightGlo luminescence reagent (Promega) was added to each well of the 384-well assay plates. The plates were placed on an orbital shaker for 2 min and then luminescence was quantified using the Envision (Perkin Elmer) plate reader. Readings were normalized to DMSO only treated cells, and normalized activities were utilized for EC50 calculations using the dose-response log (inhibitor) vs. response-variable slope (four parameters) nonlinear regression feature available in GraphPad Prism 5.0 (or Dotmatics). For EC50 of >10 μM, the percent inhibition at 10 μM is provided.

SW480 colon cancer cells = assay: Cell viability assay (CellTiter-Blue), SW480 cells; details: Homo sapiens; for EC50: 96 h, four days, CellTiter-Blue; for inhibition at 10 µM: given for EC50 >10 μM, read-out: percent inhibition at 10 μM
Method: Representative compounds were screened using the following assay procedure to assess the effect on cell viability as described below.
Each compound was dissolved in DMSO as a 10 mM stock and used to prepare compound source plates. Serial dilution (1:3, 8-point dose-response curves from […]) and compound transfer was performed using the ECHO 550 (Labcyte, Sunnyvale, Calif.) into 96-well clear bottom, black-walled plates (Corning-Costar).
Approximately 2×10^3 SW480 colon cancer cells were seeded into each well and allowed to incubate in the presence or absence of compound for four days at 37° C./5% CO2. Eight replicates of DMSO-treated cells served as controls and cells treated with compound were performed in duplicate.
After incubation, 20 μL of CellTiter-Blue (Promega) was added to each well allowed to incubate for approximately 3 hours. This reagent was a buffered solution which contains resazurin, metabolically active cells were able to reduce rezarurin (blue) into resorufin (pink) which was highly fluorescent. This measured fluorescence was used as a readout for cell viability.
After incubation, the plates were read at Ex 560 nm Em 590 nm (Cytation 3, BioTek). Dose-response curves were generated and EC50 concentration values were calculated using non-linear regression curve fit in the GraphPad Prism (San Diego, Calif.) or Dotmatics' Studies Software (Bishops Stortford, UK). For EC50 of >10 μM, the percent inhibition at 10 μM is provided.

## O=C(Cc1ccccc1)Nc1cncc(-c2ccc3[nH]nc(-c4cc5c(-c6ccoc6)cncc5[nH]4)c3n2)c1 [Compound 318, N-(5-(3-(4-(Furan-3-yl)-1H-pyrrolo[2,3-c]pyridin-2-yl)-1H-pyrazolo[4,3-b]pyridin-5-yl)pyridin-3-yl)-2-phenylacetamide]
IL-6
  EC50: > 10000 nM
  inhibition at 10 µM: 30.9%
[1]
  inhibition at 10 µM: 0%
  EC50: > 10000 nM
SW480 colon cancer cells
  EC50: > 10000 nM
  inhibition at 10 µM: 23.8%

## c1ccc(-c2ccc3[nH]nc(-c4cc5ccncc5[nH]4)c3n2)nc1 [Compound 280, 5-(Pyridin-2-yl)-3-(1H-pyrrolo[2,3-c]pyridin-2-yl)-1H-pyrazolo[4,3-b]pyridine]
IL-6
  EC50: > 10000 nM
  inhibition at 10 µM: 47.2%
[1]
  inhibition at 10 µM: 2.1%
  EC50: > 10000 nM
SW480 colon cancer cells
  EC50: > 10000 nM
  inhibition at 10 µM: 3.3%

## O=C(Nc1cncc(-c2ccc3[nH]nc(-c4cc5ccncc5[nH]4)c3n2)c1)C1CCCC1 [Compound 274, N-(5-(3-(1H-Pyrrolo[2,3-c]pyridin-2-yl)-1H-pyrazolo[4,3-b]pyridin-5-yl)pyridin-3-yl)cyclopentanecarboxamide]
IL-6
  EC50: 235 nM
[1]
  EC50: 2630 nM
SW480 colon cancer cells
  EC50: 3120 nM

## Fc1ccc(-c2cncc3[nH]c(-c4n[nH]c5ccc(-c6cncc(CN7CCC(F)(F)C7)c6)nc45)cc23)cc1 [Compound 54, 5-(5-((3,3-Difluoropyrrolidin-1-yl)methyl)pyridin-3-yl)-3-(4-(4-fluorophenyl)-1H-pyrrolo[2,3-c]pyridin-2-yl)-1H-pyrazolo[4,3-b]pyridine]
IL-6
  EC50: 177 nM
[1]
  EC50: 751 nM
SW480 colon cancer cells
  EC50: 827 nM

## O=C(Nc1cncc(-c2ccc3[nH]nc(-c4cc5c(-c6ccc(F)cc6)cncc5[nH]4)c3n2)c1)c1ccccc1 [Compound 39, N-(5-(3-(4-(4-Fluorophenyl)-1H-pyrrolo[2,3-c]pyridin-2-yl)-1H-pyrazolo [4,3-b]pyridin-5-yl)pyridin-3-yl)benzamide]
IL-6
  EC50: > 10000 nM
  inhibition at 10 µM: 33.1%
[1]
  EC50: 3430 nM
SW480 colon cancer cells
  EC50: 2310 nM

## Cc1ncc(-c2ccc3[nH]nc(-c4cc5c(-c6ccncc6)cncc5[nH]4)c3n2)n1C [Compound 573, 5-(1,2-Dimethyl-1H-imidazol-5-yl)-3-(4-(pyridin-4-yl)-1H-pyrrolo[2,3-c]pyridin-2-yl)-1H-pyrazolo[4,3-b]pyridine]
IL-6
  EC50: > 10000 nM
  inhibition at 10 µM: 0%
[1]
  inhibition at 10 µM: 43.9%
  EC50: > 10000 nM
SW480 colon cancer cells
  EC50: > 10000 nM
  inhibition at 10 µM: 5.3%

## Cc1ccncc1-c1ccc2[nH]nc(-c3cc4c(-c5ccc(F)cc5)cncc4[nH]3)c2n1 [Compound 33, 3-(4-(4-Fluorophenyl)-1H-pyrrolo[2,3-c]pyridin-2-yl)-5-(4-methylpyridin-3-yl)-1H-pyrazolo[4,3-b]pyridine]
IL-6
  EC50: > 10000 nM
  inhibition at 10 µM: 37.8%
[1]
  inhibition at 10 µM: 21.5%
  EC50: > 10000 nM
SW480 colon cancer cells
  EC50: 1860 nM

## CS(=O)(=O)NCc1cc(F)cc(-c2cncc3[nH]c(-c4n[nH]c5ccc(-c6cncc(CN7CCCCC7)c6)nc45)cc23)c1 [Compound 491, N-(3-Fluoro-5-(2-(5-(5-(piperidin-1-ylmethyl)pyridin-3-yl)-1H-pyrazolo[4,3-b]pyridin-3-yl)-1H-pyrrolo[2,3-c]pyridin-4-yl)benzyl)methanesulfonamide]
IL-6
  EC50: 213 nM
[1]
  EC50: 1300 nM
SW480 colon cancer cells
  EC50: 1960 nM

## c1cc(-c2cncc3[nH]c(-c4n[nH]c5ccc(-c6cncc(OCCN7CCCC7)c6)nc45)cc23)co1 [Compound 690, 3-(4-(Furan-3-yl)-1H-pyrrolo[2,3-c]pyridin-2-yl)-5-(5-(2-(pyrrolidin-1-yl)ethoxy)pyridin-3-yl)-1H-pyrazolo[4,3-b]pyridine]
IL-6
  EC50: > 10000 nM
  inhibition at 10 µM: 9.7%
[1]
  inhibition at 10 µM: 7.4%
  EC50: > 10000 nM
SW480 colon cancer cells
  EC50: > 10000 nM
  inhibition at 10 µM: 0%

## Fc1cccc(-c2cncc3[nH]c(-c4n[nH]c5ccc(C6CCNCC6)nc45)cc23)c1 [Compound 505, 3-(4-(3-Fluorophenyl)-1H-pyrrolo[2,3-c]pyridin-2-yl)-5-(piperidin-4-yl)-1H-pyrazolo[4,3-b]pyridine]
IL-6
  EC50: 1110 nM
[1]
  inhibition at 10 µM: 32.9%
  EC50: > 10000 nM
SW480 colon cancer cells
  EC50: > 10000 nM
  inhibition at 10 µM: 26%

## Nc1cncc(-c2ccc3[nH]nc(-c4cc5c(-c6ccncc6)cncc5[nH]4)c3n2)c1 [Compound 115, 5-(3-(4-(Pyridin-4-yl)-1H-pyrrolo[2,3-c]pyridin-2-yl)-1H-pyrazolo[4,3-b]pyridin-5-yl)pyridin-3-amine]
IL-6
  EC50: 1030 nM
[1]
  inhibition at 10 µM: 30.1%
  EC50: > 10000 nM
SW480 colon cancer cells
  EC50: > 10000 nM
  inhibition at 10 µM: 7.6%

## CN(C)Cc1cncc(-c2ccc3[nH]nc(-c4cc5c(-c6ccccc6F)cncc5[nH]4)c3n2)c1 [Compound 69, 1-(5-(3-(4-(2-Fluorophenyl)-1H-pyrrolo[2,3-c]pyridin-2-yl)-1H-pyrazolo [4,3-b]pyridin-5-yl)pyridin-3-yl)-N,N-dimethylmethanamine]
IL-6
  EC50: 1150 nM
[1]
  EC50: 1510 nM
SW480 colon cancer cells
  EC50: 557 nM

## Fc1ccccc1-c1cncc2[nH]c(-c3n[nH]c4ccc(-c5cn[nH]c5)nc34)cc12 [Compound 539, 3-(4-(2-Fluorophenyl)-1H-pyrrolo[2,3-c]pyridin-2-yl)-5-(1H-pyrazol-4-yl)-1H-pyrazolo[4,3-b]pyridine]
IL-6
  EC50: 160 nM
[1]
  EC50: 1200 nM
SW480 colon cancer cells
  EC50: 2880 nM

## CS(=O)(=O)NCc1cc(F)cc(-c2cncc3[nH]c(-c4n[nH]c5ccc(-c6ccccn6)nc45)cc23)c1 [Compound 504, N-(3-Fluoro-5-(2-(5-(pyridin-2-yl)-1H-pyrazolo[4,3-b]pyridin-3-yl)-1H-pyrrolo[2,3-c]pyridin-4-yl)benzyl)methanesulfonamide]
IL-6
  EC50: 31 nM
[1]
  EC50: 3650 nM
SW480 colon cancer cells
  EC50: > 10000 nM
  inhibition at 10 µM: 47.6%

## Cn1cc(-c2ccc3[nH]nc(-c4cc5c(-c6cccnc6)cncc5[nH]4)c3n2)cn1 [Compound 556, 5-(1-Methyl-1H-pyrazol-4-yl)-3-(4-(pyridin-3-yl)-1H-pyrrolo[2,3-c]pyridin-2-yl)-1H-pyrazolo[4,3-b]pyridine]
IL-6
  EC50: 3710 nM
[1]
  EC50: 7020 nM
SW480 colon cancer cells
  EC50: 4040 nM

## Fc1cccc(-c2cncc3[nH]c(-c4n[nH]c5ccc(-c6cccnc6)nc45)cc23)c1 [Compound 4, 3-(4-(3-Fluorophenyl)-1H-pyrrolo[2,3-c]pyridin-2-yl)-5-(pyridin-3-yl)-1H-pyrazolo[4,3-b]pyridine]
IL-6
  EC50: 266 nM
[1]
  EC50: 255 nM
SW480 colon cancer cells
  EC50: 475 nM
